In patent publication US9840513B2 (AbbVie S.à.r.l., priority 2015, dated 2017):

Tests used:
[1] = biological target: T1, F508delCFTR cell surface expression in CFBE41o-F508delCFTR-HRP cells (Homo sapiens, UniProt P13569, DEL508-508); test: Cell Surface Expression-Horse Radish Peroxidase (CSE-HRP) Assay; type: cell-based; details: for EC50: CFBE41o-F508delCFTR-HRP cells, 18-24 hours at 33° C., 8-point curve, highest concentration 20 μM; for Maximum % activity (%): maximum at any tested concentration, normalized to on-plate positive control (3 μM)
T1 construct: fused on or other part: Horseradish peroxidase (HRP) reporter inserted in the fourth exofacial (extracellular) loop of CFTR; expression is doxycycline-inducible
Summary of the method: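 CFBE41o- cells with HRP-tagged F508delCFTR, expression induced by 0.5 μg/mL doxycycline for 72 h at 37 °C, then compound for 18-24 h at 33 °C (8-point, 3-fold, top 20 μM). Surface HRP measured by luminol luminescence; % activity normalised to 3 μM positive-control corrector; EC50 from variable-slope sigmoidal fit, three replicate plates.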

[2] = biological target: T2, F508delCFTR in primary hBE cells with F508del/F508del CFTR mutation (Homo sapiens, UniProt P13569, DEL508-508); test: Transepithelial Clamp Circuit on Human Bronchial Epithelial Cells Conductance Assay (hBE-TECC); type: cell-based; details: for EC50: primary hBE cells F508del/F508del, 18-24 hours at 37° C., equivalent short circuit current, 6 concentrations; for Maximum % activity (%): relative to positive control (3 μM) coupled with control potentiator
T2 construct: cells isolated from CF patients with the homozygous mutation; endogenous in cells; host or cells: primary human bronchial epithelial (hBE) cells from F508del/F508del CF patients
Summary of the method: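 Primary F508del/F508del hBE cells grown 35 days at air-liquid interface, treated basolaterally with correctors 18-24 h at 37° C. Ieq (Vt/Rt) at 36.5° C, pH 7.4, after benzamil, forskolin 10 μM, control potentiator, bumetanide; 6 concentrations normalized to DMSO and 3 μM positive-control corrector, EC50 by 4-parameter fit.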

T2 sequence (P13569 with tags, fused parts or gaps DEL508-508): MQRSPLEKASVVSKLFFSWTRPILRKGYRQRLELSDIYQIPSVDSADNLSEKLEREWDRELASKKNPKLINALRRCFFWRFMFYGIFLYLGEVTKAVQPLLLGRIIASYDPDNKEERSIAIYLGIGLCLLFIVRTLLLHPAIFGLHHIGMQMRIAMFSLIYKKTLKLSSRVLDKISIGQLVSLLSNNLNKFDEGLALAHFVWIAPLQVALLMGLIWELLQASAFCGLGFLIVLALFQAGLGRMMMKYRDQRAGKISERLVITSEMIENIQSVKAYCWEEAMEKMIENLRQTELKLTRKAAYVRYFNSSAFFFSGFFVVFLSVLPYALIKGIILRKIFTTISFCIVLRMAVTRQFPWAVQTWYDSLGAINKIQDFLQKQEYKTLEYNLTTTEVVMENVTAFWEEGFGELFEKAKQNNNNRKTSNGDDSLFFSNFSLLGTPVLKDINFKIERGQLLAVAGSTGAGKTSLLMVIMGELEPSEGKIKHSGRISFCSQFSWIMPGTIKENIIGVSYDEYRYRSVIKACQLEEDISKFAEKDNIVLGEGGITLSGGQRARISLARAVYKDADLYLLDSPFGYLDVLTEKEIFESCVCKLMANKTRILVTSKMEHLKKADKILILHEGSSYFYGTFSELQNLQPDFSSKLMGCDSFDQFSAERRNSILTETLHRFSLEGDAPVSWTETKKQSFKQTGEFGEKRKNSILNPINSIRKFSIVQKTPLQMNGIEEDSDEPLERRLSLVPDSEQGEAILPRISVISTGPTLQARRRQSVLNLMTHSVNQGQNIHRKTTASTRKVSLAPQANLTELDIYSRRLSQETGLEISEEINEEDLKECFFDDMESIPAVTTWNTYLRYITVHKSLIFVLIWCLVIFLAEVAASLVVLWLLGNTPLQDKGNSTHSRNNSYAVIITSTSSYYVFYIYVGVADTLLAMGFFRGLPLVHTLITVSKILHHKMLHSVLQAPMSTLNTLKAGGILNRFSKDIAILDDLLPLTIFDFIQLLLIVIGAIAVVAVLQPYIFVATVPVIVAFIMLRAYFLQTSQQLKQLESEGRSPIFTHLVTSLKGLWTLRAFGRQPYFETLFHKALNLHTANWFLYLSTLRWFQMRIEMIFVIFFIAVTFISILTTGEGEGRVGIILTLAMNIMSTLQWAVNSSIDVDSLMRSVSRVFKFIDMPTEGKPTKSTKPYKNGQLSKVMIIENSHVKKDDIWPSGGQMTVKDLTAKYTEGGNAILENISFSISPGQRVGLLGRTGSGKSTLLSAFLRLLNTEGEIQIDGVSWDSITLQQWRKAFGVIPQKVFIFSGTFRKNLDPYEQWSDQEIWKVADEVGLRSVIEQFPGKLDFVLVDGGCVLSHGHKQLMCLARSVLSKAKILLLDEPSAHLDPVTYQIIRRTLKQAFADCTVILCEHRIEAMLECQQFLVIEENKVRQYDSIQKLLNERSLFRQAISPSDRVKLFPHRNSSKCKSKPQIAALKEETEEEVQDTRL
T1 sequence (P13569 with tags, fused parts or gaps DEL508-508 limits assumed): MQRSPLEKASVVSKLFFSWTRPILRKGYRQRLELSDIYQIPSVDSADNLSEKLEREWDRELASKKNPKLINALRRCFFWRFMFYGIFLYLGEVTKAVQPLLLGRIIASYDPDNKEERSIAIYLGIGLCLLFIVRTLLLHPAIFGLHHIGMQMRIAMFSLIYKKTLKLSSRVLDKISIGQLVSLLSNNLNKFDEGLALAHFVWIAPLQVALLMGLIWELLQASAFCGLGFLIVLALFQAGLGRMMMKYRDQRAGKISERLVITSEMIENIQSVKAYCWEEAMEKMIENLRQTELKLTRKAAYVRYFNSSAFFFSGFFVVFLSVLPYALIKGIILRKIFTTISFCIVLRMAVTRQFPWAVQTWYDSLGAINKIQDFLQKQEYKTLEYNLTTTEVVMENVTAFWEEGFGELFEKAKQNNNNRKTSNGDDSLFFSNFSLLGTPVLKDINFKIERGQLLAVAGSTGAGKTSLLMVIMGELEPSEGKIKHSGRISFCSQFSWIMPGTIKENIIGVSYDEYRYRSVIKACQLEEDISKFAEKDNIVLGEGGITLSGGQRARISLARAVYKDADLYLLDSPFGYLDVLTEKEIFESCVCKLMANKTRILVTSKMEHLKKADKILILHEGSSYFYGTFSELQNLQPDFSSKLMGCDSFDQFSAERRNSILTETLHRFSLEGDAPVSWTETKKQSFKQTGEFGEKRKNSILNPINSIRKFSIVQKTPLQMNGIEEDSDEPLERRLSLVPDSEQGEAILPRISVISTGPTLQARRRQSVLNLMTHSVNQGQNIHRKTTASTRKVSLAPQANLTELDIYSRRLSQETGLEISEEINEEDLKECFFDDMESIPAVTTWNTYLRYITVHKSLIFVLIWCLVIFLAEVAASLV
T1 sequence (P13569 919-1480 limits assumed, stated change not applied): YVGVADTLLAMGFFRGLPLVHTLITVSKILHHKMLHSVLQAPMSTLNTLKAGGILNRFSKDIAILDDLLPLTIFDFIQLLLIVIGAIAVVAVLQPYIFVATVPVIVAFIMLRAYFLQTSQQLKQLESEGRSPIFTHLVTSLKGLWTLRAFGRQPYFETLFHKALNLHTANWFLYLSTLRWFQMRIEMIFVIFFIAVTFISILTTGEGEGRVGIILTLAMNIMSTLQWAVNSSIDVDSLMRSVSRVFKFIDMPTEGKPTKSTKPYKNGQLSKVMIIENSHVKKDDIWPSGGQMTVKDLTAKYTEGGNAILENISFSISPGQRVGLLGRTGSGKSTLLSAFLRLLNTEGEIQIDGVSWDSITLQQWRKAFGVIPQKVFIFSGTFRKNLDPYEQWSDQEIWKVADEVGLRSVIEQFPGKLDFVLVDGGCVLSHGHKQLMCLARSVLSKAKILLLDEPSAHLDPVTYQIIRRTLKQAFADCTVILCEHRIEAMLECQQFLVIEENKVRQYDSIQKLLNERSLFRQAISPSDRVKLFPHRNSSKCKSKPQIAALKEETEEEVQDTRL

Row | EC50 [1] [nM] | Maximum % activity (%) [1] [%] | EC50 [2] [nM] | Maximum % activity (%) [2] [%] | SMILES
1 | 90 | 127 | 13 | 99 | C[C@]1(C(=O)N[C@@H]2C[C@H](c3ccc(CO)cn3)Oc3cc(OC(F)(F)F)ccc32)COc2cc3c(cc21)OC(F)(F)O3 [Example 177, (7R)-2,2-difluoro-N-[(2R,4R)-2-[5-(hydroxymethyl)pyridin-2-yl]-7-(trifluoromethoxy)-3,4-dihydro-2H-1-benzopyran-4-yl]-7-methyl-6,7-dihydro-2H-furo[2,3-f][1,3]benzodioxole-7-carboxamide]
2 | 290 | 158 | 66 | 108 | COc1ccc2c(c1)O[C@@H](c1ccc(CO)nc1)C[C@H]2NC(=O)[C@@]1(C)COc2cc3c(cc21)OC(F)(F)O3 [Example 178, (7R)-2,2-difluoro-N-{(2R,4R)-2-[6-(hydroxymethyl)pyridin-3-yl]-7-methoxy-3,4-dihydro-2H-1-benzopyran-4-yl}-7-methyl-6,7-dihydro-2H-furo[2,3-f][1,3]benzodioxole-7-carboxamide]
3 | 280 | 108 | 147 | 70 | CC(C)(CO)c1cc2cc(NC(=O)[C@@]3(C)COc4cc5c(cc43)OC(F)(F)O5)c(F)cc2n1C[C@@H](O)CC#N [Example 179, (7R)—N-{1-[(2S)-3-cyano-2-hydroxypropyl]-6-fluoro-2-(1-hydroxy-2-methylpropan-2-yl)-1H-indol-5-yl}-2,2-difluoro-7-methyl-6,7-dihydro-2H-furo[2,3-f][1,3]benzodioxole-7-carboxamide]
4 | 40 | 130 | 6 | 105 | COc1ccc2c(c1)O[C@@H](c1ccc(=O)[nH]n1)C[C@H]2NC(=O)[C@@]1(C)COc2cc3c(cc21)OC(F)(F)O3 [Example 197, (7R)-2,2-difluoro-N-[(2R,4R)-7-methoxy-2-(6-oxo-1,6-dihydropyridazin-3-yl)-3,4-dihydro-2H-1-benzopyran-4-yl]-7-methyl-6,7-dihydro-2H-furo[2,3-f][1,3]benzodioxole-7-carboxamide]
5 | 1950 | 84 | 1030 | 79 | CC1(C)COC(C)(C)c2c1n(C[C@@H](O)CO)c1cc(F)c(NC(=O)[C@@]3(C)COc4cc5c(cc43)OC(F)(F)O5)cc21 [Example 206, (7R)—N-{5-[(2R)-2,3-dihydroxypropyl]-7-fluoro-1,1,4,4-tetramethyl-1,3,4,5-tetrahydropyrano[4,3-b]indol-8-yl}-2,2-difluoro-7-methyl-6,7-dihydro-2H-furo[2,3-f][1,3]benzodioxole-7-carboxamide]
6 | 80 | 117 | 41 | 82 | COc1ccc2c(c1)O[C@@H](c1ccc(C(=O)N3CCN(CCO)CC3)cn1)C[C@H]2NC(=O)[C@@]1(C)COc2cc3c(cc21)OC(F)(F)O3 [Example 213, (7R)-2,2-difluoro-N-[(2R,4R)-2-{5-[4-(2-hydroxyethyl)piperazine-1-carbonyl]pyridin-2-yl}-7-methoxy-3,4-dihydro-2H-1-benzopyran-4-yl]-7-methyl-6,7-dihydro-2H-furo[2,3-f][1,3]benzodioxole-7-carboxamide]
7 | 60 | 114 | 16 | 88 | COc1ccc2c(c1)O[C@@H](c1ccc(C(=O)NCC(C)(C)O)cn1)C[C@H]2NC(=O)[C@@]1(C)COc2cc3c(cc21)OC(F)(F)O3 [Example 214, 6-[(2R,4R)-4-{[(7R)-2,2-difluoro-7-methyl-6,7-dihydro-2H-furo[2,3-f][1,3]benzodioxole-7-carbonyl]amino}-7-methoxy-3,4-dihydro-2H-1-benzopyran-2-yl]-N-(2-hydroxy-2-methylpropyl)pyridine-3-carboxamide]
8 | 10 | 112 | 10 | 94 | COc1ccc2c(c1)O[C@@H](c1ccc(C(=O)N3CCOCC3)cn1)C[C@H]2NC(=O)[C@@]1(C)COc2cc3c(cc21)OC(F)(F)O3 [Example 220, (7R)-2,2-difluoro-N-{(2R,4R)-7-methoxy-2-[5-(morpholine-4-carbonyl)pyridin-2-yl]-3,4-dihydro-2H-1-benzopyran-4-yl}-7-methyl-6,7-dihydro-2H-furo[2,3-f][1,3]benzodioxole-7-carboxamide]
9 | 70 | 112 | 21 | 87 | COc1ccc2c(c1)O[C@@H](c1ccc(C(=O)NCC(O)CO)cn1)C[C@H]2NC(=O)[C@@]1(C)COc2cc3c(cc21)OC(F)(F)O3 (stereo partly drawn) [Example 243, 6-[(2R,4R)-4-{[(7R)-2,2-difluoro-7-methyl-6,7-dihydro-2H-furo[2,3-f][1,3]benzodioxole-7-carbonyl]amino}-7-methoxy-3,4-dihydro-2H-1-benzopyran-2-yl]-N-(2,3-dihydroxypropyl)pyridine-3-carboxamide]
10 | 90 | 116 | 32 | 105 | COc1ccc2c(c1)O[C@@H](c1ccc(C(=O)N3C[C@@H](O)[C@H](O)C3)cn1)C[C@H]2NC(=O)[C@@]1(C)COc2cc3c(cc21)OC(F)(F)O3 [Example 248, (7R)—N-[(2R,4R)-2-{5-[(3R,4R)-3,4-dihydroxypyrrolidine-1-carbonyl]pyridin-2-yl}-7-methoxy-3,4-dihydro-2H-1-benzopyran-4-yl]-2,2-difluoro-7-methyl-6,7-dihydro-2H-furo[2,3-f][1,3]benzodioxole-7-carboxamide]
11 | 20 | 135 | 1 | 95 | COc1ccc2c(c1)O[C@@H](c1cnc(N3C[C@@H](O)[C@H](O)C3)cn1)C[C@H]2NC(=O)[C@@]1(C)COc2cc3c(cc21)OC(F)(F)O3 [Example 250, (7R)—N-[(2R,4R)-2-{5-[(3R,4R)-3,4-dihydroxypyrrolidin-1-yl]pyrazin-2-yl}-7-methoxy-3,4-dihydro-2H-1-benzopyran-4-yl]-2,2-difluoro-7-methyl-6,7-dihydro-2H-furo[2,3-f][1,3]benzodioxole-7-carboxamide]
12 | 30 | 128 | 5 | 86 | COc1ccc2c(c1)O[C@@H](c1ccc(N3C[C@@H](O)[C@H](O)C3)nn1)C[C@H]2NC(=O)[C@@]1(C)COc2cc3c(cc21)OC(F)(F)O3 [Example 251, (7R)—N-[(2R,4R)-2-{6-[(3R,4R)-3,4-dihydroxypyrrolidin-1-yl]pyridazin-3-yl}-7-methoxy-3,4-dihydro-2H-1-benzopyran-4-yl]-2,2-difluoro-7-methyl-6,7-dihydro-2H-furo[2,3-f][1,3]benzodioxole-7-carboxamide]
13 | 90 | 110 | 32 | 106 | COc1ccc2c(c1)OC(c1ccc(OC[C@@H](O)CO)nn1)C[C@H]2NC(=O)[C@@]1(C)COc2cc3c(cc21)OC(F)(F)O3 (stereo partly drawn) [Example 252, (7R)—N-[(4R)-2-{6-[(2S)-2,3-dihydroxypropoxy]pyridazin-3-yl}-7-methoxy-3,4-dihydro-2H-1-benzopyran-4-yl]-2,2-difluoro-7-methyl-6,7-dihydro-2H-furo[2,3-f][1,3]benzodioxole-7-carboxamide]
14 | 60 | 168 | 10 | 106 | C[C@]1(C(=O)N[C@@H]2C[C@H]([C@H]3CC[C@H](C(=O)N4C[C@H](O)[C@@H](O)C4)CC3)Oc3cc(OC(F)(F)F)ccc32)COc2cc3c(cc21)OC(F)(F)O3 [Example 256, (7R)—N-[(2R,4R)-2-{trans-4-[(3S,4S)-3,4-dihydroxypyrrolidine-1-carbonyl]cyclohexyl}-7-(trifluoromethoxy)-3,4-dihydro-2H-1-benzopyran-4-yl]-2,2-difluoro-7-methyl-6,7-dihydro-2H-furo[2,3-f][1,3]benzodioxole-7-carboxamide]
15 | 130 | 174 | 69 | 129 | C[C@]1(C(=O)N[C@@H]2C[C@H]([C@H]3CC[C@H](C(=O)NCC(O)CO)CC3)Oc3cc(OC(F)(F)F)ccc32)COc2cc3c(cc21)OC(F)(F)O3 (stereo partly drawn) [Example 260, (7R)—N-[(2R,4R)-2-{trans-4-[(2,3-dihydroxypropyl)carbamoyl]cyclohexyl}-7-(trifluoromethoxy)-3,4-dihydro-2H-1-benzopyran-4-yl]-2,2-difluoro-7-methyl-6,7-dihydro-2H-furo[2,3-f][1,3]benzodioxole-7-carboxamide]
